Data as given in publication PMC4976923, “Potent Allosteric Dengue Virus NS5 Polymerase Inhibitors: Mechanism of Action and Resistance Profiling” (PLoS Pathogens, 2016).
Like-named read-outs stand apart in the source and are kept apart here.

What was measured:
DENV2 FL NS5 = biological target: T1, DENV2 FL NS5 (Dengue virus type 2, UniProt P14340); assay: DENV2 FL NS5 de novo initiation FAPA assay; assay type: biochemical; details: one experiment; read-out: DENV FL NS5 de novo initiation FAPA, IC50, DENV2
T1 construct: made in house
Procedure: (§1) DENV1-4 FL NS5 dnI assays were performed as described previously. Briefly, compounds from 0–20 or -100 μM concentrations are two-fold serially diluted into 384-well black opaque plates (Corning Costar), after which 100 nM DENV FL NS5 protein was added and the plates incubated at RT for 20 min. RNA and ATTO-CTP, ATP, GTP and UTP were then added and the plates incubated for another 120 min. […] For order-of-addition experiments, DENV4 FL NS5 was incubated for one hour at RT with RNA, ATP, and GTP or RNA, ATP, GTP and ATTO-CTP, followed by exposure to serially diluted compounds for 20 min at RT. The missing components (ATTO-CTP and UTP or UTP alone) were added and the reactions continued for 120 min after which STOP buffer was added as before. All datapoints were performed in duplicate wells. Each compound was tested at least twice.
(§2) 2 Co mpound testing with DENV dn I FAPA assays. Final dn I assa y reaction mixtures
(§3) 3 contained 100 nM DENV 5 ´UTR-L-3´UTR IVT RNA, 20 µ M ATP, 20 µM GTP, 20 µM
(§4) 4 UTP, 5 µM ATTO -CTP, and 100 nM of DENV FL NS5 protein in 15 µl in assa y buffer
(§5) 5 comprising 50 mM Tris/ HCl, pH 7.5, 10 mM KCl, 1 mM MgCl2, 0.3 mM MnCl2 (DENV2
(§6) 6 and 4) or 1 mM MnCl 2 (DENV1 and 3), 0.001% Triton- X-100 and 10 µ M cystein e [ 1] . To
(§7) 7 perform dose-respons e inhibition measurements, compounds from 0- 20 or - 100 µM
(§8) 8 concentr ations are two -fold seriall y diluted into 384-well black opaqu e plat es (Corning
(§9) 9 Costar), after which 100 nM DENV FL NS5 protein was added into resp ect ive wells. The
(§10) 10 plates wer e sealed, b riefl y shak en and centrif uged at 1500 rpm for 30 sec and incubated at RT
(§11) 11 for 15 min. Thereafter,RNA and ATTO -CTP, ATP, GTP and UTP were added to the wells to
(§12) 12 start the reactions. The pl ates wer e re-seal ed, shaken and centrifuged as before, followed b y
(§13) 13 incubation RT for 120 min.
(§14) 15 intestinal phosphatase (CIP), re- incubation at RT for 60 min and read on a Tecan Safire II
(§15) 16 microplate reader. For o r der-of-addition experiments, DENV4 FL NS5 was incubated for one
(§16) 17 hour at RT with RNA, ATP, and GTP or RNA, ATP, GTP and ATTO-CTP, followed by
(§17) 18 exposure to seriall y dilut ed compounds for 20 mi n at RT. The missing components (ATTO-
(§18) 19 CTP and UTP or UTP alone) were added and the reactions continued for 120 min after which
(§19) 20 STOP buffer was added as before. All datapoints were performed in duplicate wells. Each
(§20) 21 compound was tested at l east twice.
(§21) 23 Compound testing in DENV1-4 infected cells by high content imaging. Approximatel y 7
(§22) 24 × 10^3 A549 cells per well were s eeded into 384-well plates in Ham’s F-12K medium

[1] = tested on: DENV2-NGC Ren-LUC Replicon in HuH-7; assay: Stable HuH-7 DENV2-NGC renilla luciferase replicon assay; assay type: cell-based; details: Dengue virus, DENV2, Huh-7, 48 h, read-out: HuH-7 DENV Replicon, DENV2, EC50
DENV1 FL NS5 = biological target: T2, DENV1 FL NS5 (Dengue virus type 1, UniProt P17763); assay: DENV1 FL NS5 de novo initiation FAPA assay; assay type: biochemical; details: one experiment; read-out: DENV FL NS5 de novo initiation FAPA, IC50, DENV1
T2 construct: 100 nM DENV FL NS5 protein was added; made in house
Procedure: (§23) DENV1-4 FL NS5 dnI assays were performed as described previously. Briefly, compounds from 0–20 or -100 μM concentrations are two-fold serially diluted into 384-well black opaque plates (Corning Costar), after which 100 nM DENV FL NS5 protein was added and the plates incubated at RT for 20 min. RNA and ATTO-CTP, ATP, GTP and UTP were then added and the plates incubated for another 120 min. Reactions were stopped with buffer containing 25 nM CIP, re- incubated at RT for 60 min and read on a Tecan Safire II microplate reader. For order-of-addition experiments, DENV4 FL NS5 was incubated for one hour at RT with RNA, ATP, and GTP or RNA, ATP, GTP and ATTO-CTP, followed by exposure to serially diluted compounds for 20 min at RT. The missing components (ATTO-CTP and UTP or UTP alone) were added and the reactions continued for 120 min after which STOP buffer was added as before. All datapoints were performed in duplicate wells. Each compound was tested at least twice.
as §2, §3, §4, §5, §6, §7, §8, §9, §10, §11, §12
(§24) 13 incubation RT for 120 min. Reactions were stopped by addition of 10 µl of 2.5X STOP
(§25) 14 buffer (200 mM NaCl, 25 mM MgCl2, 1.5M DEA, pH 10; Promega) with 25 nM calf
as §14, §15, §16, §17, §18, §19, §20, §21, §22

DENV4 FL NS5 [2] = biological target: T3, DENV4 FL NS5 (Dengue virus type 4, UniProt P09866); assay: biochemical
T3 construct: 100 nM DENV FL NS5 protein was added; made in house
Procedure: as §1, §2, §3, §4, §5, §6, §7, §8, §9, §10, §11, §12, §13, §14, §15, §16, §17, §18, §19
21 compound was tested at l east twice. […]

DENV4 FL NS5 [3] = biological target: T3, DENV4 FL NS5; details: Enzyme + compound 20 min, then ssRNA and nucleotides, 2 hr; read-out: DENV FL NS5 de novo initiation FAPA, IC50, DENV4; cited from earlier work
DENV3 FL NS5 = biological target: T4, DENV3 FL NS5 (Dengue virus type 3, UniProt Q6YMS4); assay: DENV3 FL NS5 de novo initiation FAPA assay; assay type: biochemical; details: one experiment; read-out: DENV FL NS5 de novo initiation FAPA, IC50, DENV3
T4 construct: 100 nM DENV FL NS5 protein was added; made in house
Procedure: as §23, §2, §3, §4, §5, §6, §7, §8, §9, §10, §11, §12, §24, §25, §14, §15, §16, §17, §18, §19, §20, §21, §22

in vitro = assay type: cell-based; details: human, HuH-7 (DENV2 replicon cells); 48 hr; ATP levels
Procedure: A549, BHK-21 and Huh7 cells bearing stable DENV2 sub-genomic replicon or transiently electroporated DENV2-NGC replicon or infectious virus cDNAs were seeded into 384-well microplate (3,000 cells per well). After over-night incubation at 37°C with 5% CO2, the cells were treated with 2-fold serially diluted compounds, starting from 20 or 50 μM. At 48 hr of post-incubation, renilla luciferase activities were measured with the ViviRen live-cell substrate (Promega, USA) according to the manufacturer’s protocol. CellTiter-Glo reagent (Promega, USA) was then added to determine cytotoxic effects of compounds. For the HCV replicon assay, Huh-7.5 cells harboring the HCV replicon were seeded into a 96-well microplate (20,000 cells per well). At 48 hr after compound treatment, cells were assayed for firefly luciferase activity by using a Bright-Glo luciferase assay (Promega, USA). NITD-008, a nucleoside inhibitor of DENV and HCV was added as a control.

[4] = biological target: DENV4 RdRp domain (aa 268–900) (Dengue virus type 4, UniProt P09866); assay: Thermo-denaturation assay, recombinant RdRp domain; assay type: binding; details: +50 μM compound; DMSO control 50
Procedure: (§26) Site-directed alanine mutations of DENV4 FL NS5 cDNA were performed using pET28-D4-MY01-22713 NS5FL [23] as a template, according to the manufacturer’s protocol (Stratagene, USA). Protein expressions of DENV1-4 FL NS5 and their stability analyses by thermo-fluorescence were performed as described previously. DENV de novo initiation and elongation FAPA assays were earlier described. […]
(§27) 6 Fi g .5. Ef fects of N -pocket compounds on DENV pol ymerase thermo-stability. Melting
(§28) 7 temperatur e (Tm) w as ass essed b y thermo-d enatur ation in presence of the S YPRO Oran ge
(§29) 8 dye as described in Materials and Methods. (A-F) Representative meltin g curves of DEN V4
(§30) 10 inhibitors or 5 % DMSO control. […]
(§31) 16 controls treated with DMSO.

DENV4 FL NS5 [5] = biological target: T3, DENV4 FL NS5; assay type: biochemical; details: for mode of inhibition with respect to viral RNA substrate / mode of inhibition with respect to GTP: Lineweaver-Burk plots; for mode of inhibition with respect to viral RNA substrate: 0–500 nM RNA; for mode of inhibition with respect to GTP: 0–50 μM GTP
DENV4 FL NS5 [6] = assay: Thermo-denaturation assay, recombinant FL NS5; assay type: binding; details: +50 μM compound; DMSO control 42.5
Procedure: as §26, §27, §28, §29, §30, §31

DENV4 FL NS5 W803A = biological target: T5, DENV4 FL NS5 W803A (Dengue virus type 4, UniProt P09866, W3291A); assay type: biochemical; details: dnI FAPA; one experiment
T5 construct: Site-directed alanine mutations of DENV4 FL NS5 cDNA; made in house

DENV4 FL NS5 S797A = biological target: T6, DENV4 FL NS5 S797A (Dengue virus type 4, UniProt P09866, S3284A); assay type: biochemical; details: dnI FAPA; one experiment
T6 construct: Site-directed alanine mutations of DENV4 FL NS5 cDNA; made in house

DENV4 FL NS5 [7] = biological target: T3, DENV4 FL NS5; assay: biochemical; details: Enzyme + compound; averaged from >3 experiments; read-out: Elongation IC50
[8] = representative dose-response curve, read-out: IC50, best-fit value of representative curve (Fig 1A in S1 Text)
[9] = Enzyme + compound 20 min, then ssRNA and nucleotides, 2 hr, averaged from ≥3 experiments, read-out: DENV FL NS5 de novo initiation FAPA, IC50, DENV4

| SMILES | IC50 (DENV2 FL NS5) [nM] | EC50 [1] [nM] | IC50 (DENV1 FL NS5) [nM] | IC50 (DENV4 FL NS5 [2]; [8]) [nM] | IC50 (DENV4 FL NS5 [3]) [nM] | IC50 (DENV3 FL NS5) [nM] | CC50 (in vitro) [nM] | Protein melting temperature Tm with compound, RdRp domain [4] [°C] | mode of inhibition with respect to viral RNA substrate (DENV4 FL NS5 [5]) | mode of inhibition with respect to GTP (DENV4 FL NS5 [5]) | mode of inhibition at high GTP concentrations (DENV4 FL NS5 [5]; high GTP concentrations) | Protein melting temperature Tm with compound, FL NS5 (DENV4 FL NS5 [6]) [°C] | W803A IC50 (DENV4 FL NS5 W803A) | IC50 (DENV4 FL NS5 [2]; [9]) [nM] | IC50 (DENV4 FL NS5 [2]; compound added to enzyme-dsRNA complex, read-out: de novo IC50, order of addition: [Enzyme + RNA+ ATP+GTP+ATTO-CTP] + compound) [nM] | IC50 (DENV4 FL NS5 [2]; compound added to enzyme-dsRNA complex, read-out: de novo IC50, order of addition: [Enzyme + RNA+ATP+GTP] + compound) [nM] | IC50 (DENV4 FL NS5 [2]; compound added to pre-formed enzyme-ssRNA complex, read-out: de novo IC50, order of addition: [Enzyme + RNA] + compound) [nM] | S797A IC50 (DENV4 FL NS5 S797A) | IC50 (DENV4 FL NS5 [7]) [nM] |
| --- | --- | --- | --- | --- | --- | --- | --- | --- | --- | --- | --- | --- | --- | --- | --- | --- | --- | --- | --- |
| COc1cc(OC)c(-c2ccc(C#CCO)s2)cc1C(=O)NS(=O)(=O)c1ccccc1 [Compound 26] | 145 | 21000 | 75 | 115 | 251 ± 129 | 57 | > 100000 | – | – | – | – | – | – | – | – | – | – | – | – |
| COc1cc(C)c(C(=O)NS(=O)(=O)c2ccccc2)cc1-c1ccc(C#CCO)s1 [Compound 25] | 106 | 11400 | 33 | 281 | 165 ± 108 | 40 | > 100000 | – | – | – | – | – | – | – | – | – | – | – | – |
| O=C(O)Cc1cc(CC(=O)O)cc(-c2ccc(C#CCO)s2)c1 [Compound 15] | 2200 | > 100000 | 300 | – | – | 460 | > 100000 | 65 | uncompetitive | uncompetitive inhibition | non-competitive mode of inhibition | 52 | – | – | – | – | – | – | – |
| COc1ccc(CC(=O)O)cc1-c1ccccc1 [Compound 3] | 769000 | > 100000 | 769000 | 788000 | 733000 ± 10600 | 796000 | > 100000 | – | – | – | – | – | – | – | – | – | – | – | – |
| Nc1nc2c(ncn2[C@@H]2O[C@H](COP(=O)(O)OP(=O)(O)OP(=O)(O)O)C[C@H]2O)c(=O)[nH]1 [3'dGTP, reference compound] | 620 | > 100000 | 520 | 513 | – | 270 | > 100000 | – | non-competitive | competitive | – | – | retained the same IC50 | 790 ± 200 | 710 ± 200 | 740 ± 260 | 440 ± 20 | retained the same IC50 | 430 ± 290 |
| COc1ccc(CC(=O)O)cc1-c1ccc(Cl)s1 [Compound 3i] | 37200 | > 100000 | 46600 | 30900 | – | 66800 | > 100000 | – | – | – | – | – | – | 30700 ± 9400 | – | – | – | – | – |
| O=C(O)Cc1cc(CC(=O)O)cc(-c2ccc(Cl)s2)c1 [Compound 11] | 39700 | > 100000 | 7100 | – | – | 10700 | > 100000 | – | – | – | – | – | – | – | – | – | – | – | – |
